Laboratory results reported in patent publication US10947188B2, “Small molecule ferroptosis inducers” (THE TRUSTEES OF COLUMBIA UNIVERSITY IN THE CITY OF NEW YORK, priority 2016, dated 2021).

Tested on: BJeLR
Test: Modulatory profiling: Alamar Blue viability, lethal compound cotreated with death modulator (EC50, AUC); on AUC, modulator BJ.3MA: reference of the scale not given here; on AUC, modulator BJ.ALLN: reference of the scale not given here; on AUC, modulator BJ.Boc D: reference of the scale not given here; on AUC, modulator BJ.CHX: reference of the scale not given here; on AUC, modulator BJ.Co2+: reference of the scale not given here; on AUC, modulator BJ.DPQ: reference of the scale not given here; on AUC, modulator BJ.Gd3+: reference of the scale not given here; on AUC, modulator BJ.LNAME: reference of the scale not given here; on AUC, modulator BJ.NAD+: reference of the scale not given here; on AUC, modulator BJ.NMMA: reference of the scale not given here; on AUC, modulator BJ.Nec-1: reference of the scale not given here; on AUC, modulator BJ.Pepstatin: reference of the scale not given here; on AUC, modulator BJ.TLCK: reference of the scale not given here
Format: cell-based, human
Set-up: AUC, modulator BJ.Gd3+ / AUC, modulator BJ.LNAME / AUC, modulator BJ.Lmin / AUC, modulator BJ.3MA / AUC, modulator BJ.ALLN / AUC, modulator BJ.Boc D / AUC, modulator BJ.CHX / AUC, modulator BJ.Co2+ / AUC, modulator BJ.Nec-1 / AUC, modulator BJ.Pepstatin / AUC, modulator BJ.TLCK / AUC, modulator BJ.atoc / AUC, modulator BJ.trolox / AUC, modulator BJ.zVAD: unit not given beside the values
Conditions: BJeLR cells, modulatory profile value (AUC); for AUC, modulator BJ.3MA: lethal compound cotreated with modulator 3MA; for AUC, modulator BJ.ALLN: lethal compound cotreated with modulator ALLN; for AUC, modulator BJ.Boc D: lethal compound cotreated with modulator Boc D; for AUC, modulator BJ.CHX: lethal compound cotreated with modulator CHX; for AUC, modulator BJ.Co2+: lethal compound cotreated with modulator Co2+; for AUC, modulator BJ.DPQ: lethal compound cotreated with modulator DPQ; for AUC, modulator BJ.Gd3+: lethal compound cotreated with modulator Gd3+; for AUC, modulator BJ.LNAME: lethal compound cotreated with modulator LNAME; for AUC, modulator BJ.Lmin/NAD+: lethal compound cotreated with modulator Lmin/NAD+; for AUC, modulator BJ.Lmin: lethal compound cotreated with modulator Lmin; for AUC, modulator BJ.NAD+: lethal compound cotreated with modulator NAD+; for AUC, modulator BJ.NMMA: lethal compound cotreated with modulator NMMA; for AUC, modulator BJ.Nec-1: lethal compound cotreated with modulator Nec-1; for AUC, modulator BJ.Pepstatin: lethal compound cotreated with modulator Pepstatin; for AUC, modulator BJ.TLCK: lethal compound cotreated with modulator TLCK; for AUC, modulator BJ.atoc: lethal compound cotreated with modulator atoc; for AUC, modulator BJ.trolox: lethal compound cotreated with modulator trolox; for AUC, modulator BJ.zVAD: lethal compound cotreated with modulator zVAD

SMILES | AUC, modulator BJ.3MA | AUC, modulator BJ.ALLN | AUC, modulator BJ.Boc D | AUC, modulator BJ.CHX | AUC, modulator BJ.Co2+ | AUC, modulator BJ.DPQ | AUC, modulator BJ.Gd3+ | AUC, modulator BJ.LNAME | AUC, modulator BJ.Lmin/NAD+ | AUC, modulator BJ.Lmin | AUC, modulator BJ.NAD+ | AUC, modulator BJ.NMMA | AUC, modulator BJ.Nec-1 | AUC, modulator BJ.Pepstatin | AUC, modulator BJ.TLCK | AUC, modulator BJ.atoc | AUC, modulator BJ.trolox | AUC, modulator BJ.zVAD
CC(C)C[C@H](NC(=O)[C@H](CC(C)C)NC(=O)[C@H](CC(C)C)NC(=O)OCc1ccccc1)B(O)O [MG262] | −0.0362 | −0.1989 | 0.01756 | 0.2438 | 0.1109 | 0.005064 | 0.02134 | 0.02272 | 0.152 | 0.1437 | 0.06084 | −0.006928 | −0.01342 | 0.006624 | 0.09405 | 0.05198 | 0.008087 | −0.05498
CN(C)CC(O)Cn1c2ccc(Cl)cc2c2cc(Cl)ccc21 (stereo not drawn) [CIL5] | 0.08524 | −0.1163 | −0.07609 | −0.0324 | 0.04705 | 0.002876 | 0.01146 | −0.009787 | −0.01738 | −0.03698 | 2.99E−05 | −0.0271 | 0.03195 | 0.06042 | −0.02603 | −0.00271 | 0.0183 | −0.02054
Cc1cccc(-n2ncc(Cl)c(Cl)c2=O)c1 [CIL22] | −0.04329 | −0.03232 | −0.0406 | 0.1136 | 0.07615 | 0.005752 | 0.005899 | 0.0123 | 0.07278 | 0.002645 | −0.005902 | −0.007412 | −0.01633 | 0.02724 | −0.01321 | 0.01015 | 0.0184 | 0.03093
CC(C)C[C@H](NC(=O)[C@H](Cc1ccccc1)NC(=O)c1cnccn1)B(O)O [Bortezomib] | 0.001928 | −0.1031 | 0.03032 | 0.2984 | 0.2379 | −0.007392 | −0.03227 | −0.008649 | 0.1491 | 0.09993 | 0.05175 | −0.0002968 | 0.002293 | 0.000698 | 0.07108 | 0.01647 | 0.01237 | 0.005086
CCCS(=O)(=O)c1nnnn1-c1cccc(OC)c1 [CIL15] | 0.02761 | −0.06757 | −0.05321 | 0.1287 | 0.0961 | −0.01238 | 0.02535 | −0.02453 | −0.01164 | −0.0004619 | 0.01287 | −0.03623 | 0.02391 | 0.0256 | −0.005629 | −0.01149 | −0.01026 | 0.01243
CC[C@]1(O)C[C@@H]2CN(CCc3c([nH]c4ccccc34)[C@@](C(=O)OC)(c3cc4c(cc3OC)N(C)[C@H]3[C@@](O)(C(=O)OC)[C@H](OC(C)=O)[C@]5(CC)C=CCN6CC[C@]43[C@@H]65)C2)C1 [Vinbiastine] | 0.0131 | −0.07228 | 0.001717 | 0.2328 | 0.1876 | −0.0312 | 0.008351 | −0.0006349 | 0.1715 | 0.06584 | 0.1373 | 0.008107 | −0.06176 | 0.002398 | −0.003672 | 0.1487 | −0.01145 | 0.01552
CC(C)(C)C1CCc2c(sc(NC(=O)CN3CCNCC3)c2C(N)=O)C1 (stereo not drawn) [CIL10] | 0.134 | −0.01713 | −0.05212 | −0.01805 | 0.1142 | −0.02695 | 0.007922 | 0.01363 | −0.01396 | −0.02341 | −0.001182 | 0.006192 | 0.07272 | 0.001044 | −0.05831 | 0.0467 | 0.05527 | −0.007333
